Calls of active or inactive are those of the source. The rule behind the calls is not given here.

Here are results for 33 molecules from ChEMBL document CHEMBL3272129, “Synthesis of 3-(4-acylaminopiperazin-1-ylalkyl)indoles as potential antihypertensive agents” (1977).

Holding throughout (format): functional
Experiment [1] relates to Rattus norvegicus. Nature of the experiment: Antihypertensive activity in spontaneous hypertensive rat model assessed as change in blood pressure at 100 mg/kg, po on day 1 and 3 measured 2 hrs post dose on day 1 by standard 3-day test.
The test system of experiment [2] is Rattus norvegicus. Nature of the experiment: Antihypertensive activity in spontaneous hypertensive rat model assessed as change in blood pressure at 100 mg/kg, po on day 1 and 3 measured 2 hrs post dose on day 3 by standard 3-day test.
Experiment [3] has as its system Rattus norvegicus. The experiment can be described thus: Antihypertensive activity in spontaneous hypertensive rat model assessed as change in blood pressure at 50 mg/kg, po on day 1 and 3 measured 2 hrs post dose on day 3 by standard 3-day test.

With `COc1cc2[nH]c(C)c(CCN3CCN(NC(=O)c4ccc(C(F)(F)F)cc4)CC3)c2cc1OC.Cl`, the Activity came to 2 mmHg in experiment [1] and 5 mmHg in experiment [2].
The matching figures for `Cc1ccccc1C(=O)NN1CCN(CCc2c[nH]c3ccccc23)CC1`: 19 mmHg and 19 mmHg.
Taken in the same sequence, the figures for `O=C(NN1CCN(CCc2c[nH]c3ccccc23)CC1)c1ccc(C(F)(F)F)cc1` were 9 mmHg and 36 mmHg.
The matching figures for `O=C(NN1CCN(Cc2c[nH]c3ccccc23)CC1)c1ccccc1`: “Active” and “Active”.
Take `COc1cc2[nH]c(C)c(CCN3CCN(NC(=O)c4ccc(F)cc4)CC3)c2cc1OC`: the Activity came out at 9 mmHg in experiment [1] and 23 mmHg in experiment [2].
On to `Cl.O=C(NC1CCN(CCc2c[nH]c3ccccc23)CC1)c1ccccc1` [INDORAMIN HYDROCHLORIDE], for which the Activity in experiment [1] is 63 mmHg; in experiment [3], 79 mmHg.
For the molecule `O=C(NN1CCN(CCc2c[nH]c3ccccc23)CC1)C1CC2CCC1C2` (stereo unspecified), the Activity in experiment [1] is given as 20 mmHg; in experiment [2], 11 mmHg.
Taken in the same sequence, the figures for `COc1ccccc1C(=O)NN1CCN(CCc2c[nH]c3ccccc23)CC1` were 7 mmHg and 23 mmHg.
The matching figures for `O=C(NN1CCN(CC(O)c2c[nH]c3ccccc23)CC1)c1ccccc1` (racemic): 30 mmHg and 33 mmHg.
Taken in the same sequence, the figures for `COc1ccc(C(=O)NN2CCN(CCc3c[nH]c4ccccc34)CC2)cc1` were 25 mmHg and 19 mmHg.
Turning to `O=C(NN1CCN(CCc2c[nH]c3ccccc23)CC1)c1ccc(F)cc1`, the results for the Activity in experiment [1] and in experiment [2] were 56 mmHg and 57 mmHg, respectively.
The matching figures for `COc1cc2[nH]c(C)c(CCN3CCN(NC(=O)c4ccccc4OC)CC3)c2cc1OC.Cl`: 4 mmHg and 15 mmHg.
In the case of `O=C(NN1CCN(CCc2c[nH]c3ccccc23)CC1)C1CCCCC1`, the Activity in experiment [1] turned out to be 37 mmHg; in experiment [2], 35 mmHg.
In the case of `Cc1[nH]c2ccccc2c1CCN1CCN(NC(=O)c2ccccc2)CC1`, the figures for the Activity in experiment [1] and in experiment [2] were 39 mmHg and 37 mmHg, respectively.
Taken in the same sequence, the figures for `Cc1ccc(C(=O)NN2CCN(CCc3c[nH]c4ccccc34)CC2)cc1` were 18 mmHg and 43 mmHg.
Taken in the same sequence, the figures for `O=C(NN1CCN(CCc2c[nH]c3ccccc23)CC1)c1ccc([N+](=O)[O-])cc1` were 17 mmHg and 16 mmHg.
Taken in the same sequence, the figures for `O=C(NN1CCN(CCc2c[nH]c3ccccc23)CC1)C(c1ccccc1)c1ccccc1` were 3 mmHg and 10 mmHg.
In the case of `Cc1[nH]c2ccccc2c1CCN1CCN(NC(=O)c2ccc([N+](=O)[O-])cc2)CC1`, the Activity in experiment [1] is 25 mmHg; in experiment [2], 20 mmHg.
For `COc1cc(C(=O)NN2CCN(CCc3c[nH]c4ccccc34)CC2)cc(OC)c1OC`, the Activity was 63 mmHg in experiment [1] and 70 mmHg in experiment [2].
Taken in the same sequence, the figures for `O=C(NN1CCN(CCc2c[nH]c3ccccc23)CC1)c1ccccc1F` were 47 mmHg and 56 mmHg.
The matching figures for `O=C(NN1CCN(Cc2c[nH]c3ccccc23)CC1)c1ccc(F)cc1`: “Active” and “Active”.
The matching figures for `Cc1cccc(C(=O)NN2CCN(CCc3c[nH]c4ccccc34)CC2)c1`: 17 mmHg and 26 mmHg.
Consider `COc1cc(OC)cc(C(=O)NN2CCN(CCc3c[nH]c4ccccc34)CC2)c1`, for which the values for the Activity in experiment [1] and in experiment [2] were 46 mmHg and 111 mmHg, respectively.
Consider `COc1cc2[nH]c(C)c(CCN3CCN(NC(=O)c4ccccc4)CC3)c2cc1OC`, for which the Activity in experiment [1] came out at 9 mmHg; in experiment [2], 12 mmHg.
For `COc1cc(C(=O)NN2CCN(Cc3c[nH]c4ccccc34)CC2)cc(OC)c1OC`, the Activity in experiment [1] amounted to 20 mmHg; in experiment [2] it was 36 mmHg.
The matching figures for `O=C(NN1CCN(CCc2c[nH]c3ccccc23)CC1)c1ccncc1`: 23 mmHg and 24 mmHg.
Taken in the same sequence, the figures for `Cc1[nH]c2ccccc2c1CCN1CCN(NC(=O)c2ccc(F)cc2)CC1` were 29 mmHg and 25 mmHg.
Taken in the same sequence, the figures for `O=C(NN1CCN(CCc2c[nH]c3ccccc23)CC1)c1cccc(C(F)(F)F)c1` were 49 mmHg and 19 mmHg.
On to `O.O=C(NN1CCN(CCc2c[nH]c3ccccc23)CC1)c1ccccc1`, for which the Activity in experiment [1] is recorded as 24 mmHg; in experiment [2], 56 mmHg.
On to `COc1cccc(C(=O)NN2CCN(CCc3c[nH]c4ccccc34)CC2)c1`, for which the Activity in experiment [1] stood at 21 mmHg; in experiment [2], 2 mmHg.
Consider `O=C(NN1CCN(CCc2c[nH]c3ccccc23)CC1)c1ccco1`, for which the Activity in experiment [1] was 58 mmHg; in experiment [2], 64 mmHg.
With `CC(=O)NN1CCN(CCc2c[nH]c3ccccc23)CC1`, the Activity in experiment [1] stood at 32 mmHg; in experiment [2] it was 40 mmHg.
Taken in the same sequence, the figures for `O=C(NN1CCN(CCc2c[nH]c3ccccc23)CC1)c1ccc(Cl)cc1` were 17 mmHg and 22 mmHg.
